What was measured:
[1] = target: T1, Prostaglandin G/H synthase 2 (Mus musculus, UniProt Q05769); assay: Tested for prostaglandin E2 production as a function of COX-2 inhibition using endotoxin-treated murine RAW 264.7 macrophages; format: functional
T1 sequence (Q05769 whole entry): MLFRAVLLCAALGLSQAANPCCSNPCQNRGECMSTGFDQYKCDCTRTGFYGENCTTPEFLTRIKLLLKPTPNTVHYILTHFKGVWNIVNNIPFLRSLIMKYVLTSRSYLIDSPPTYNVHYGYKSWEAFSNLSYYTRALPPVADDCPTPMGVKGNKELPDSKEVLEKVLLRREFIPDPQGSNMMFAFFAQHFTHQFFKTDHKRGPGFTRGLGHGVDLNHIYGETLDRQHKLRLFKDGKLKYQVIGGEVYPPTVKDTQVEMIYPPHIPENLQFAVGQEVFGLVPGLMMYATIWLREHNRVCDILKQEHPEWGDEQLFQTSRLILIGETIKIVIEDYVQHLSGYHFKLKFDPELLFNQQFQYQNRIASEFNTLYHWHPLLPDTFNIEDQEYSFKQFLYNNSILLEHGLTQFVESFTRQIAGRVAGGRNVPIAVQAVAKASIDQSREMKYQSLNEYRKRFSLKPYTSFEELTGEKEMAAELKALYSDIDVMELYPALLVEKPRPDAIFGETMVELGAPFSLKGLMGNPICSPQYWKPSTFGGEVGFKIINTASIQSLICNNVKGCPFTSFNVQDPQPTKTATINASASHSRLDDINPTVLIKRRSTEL

[2] = target: T2, Prostaglandin G/H synthase 2 (Homo sapiens, UniProt P35354)
T2 sequence (P35354 whole entry): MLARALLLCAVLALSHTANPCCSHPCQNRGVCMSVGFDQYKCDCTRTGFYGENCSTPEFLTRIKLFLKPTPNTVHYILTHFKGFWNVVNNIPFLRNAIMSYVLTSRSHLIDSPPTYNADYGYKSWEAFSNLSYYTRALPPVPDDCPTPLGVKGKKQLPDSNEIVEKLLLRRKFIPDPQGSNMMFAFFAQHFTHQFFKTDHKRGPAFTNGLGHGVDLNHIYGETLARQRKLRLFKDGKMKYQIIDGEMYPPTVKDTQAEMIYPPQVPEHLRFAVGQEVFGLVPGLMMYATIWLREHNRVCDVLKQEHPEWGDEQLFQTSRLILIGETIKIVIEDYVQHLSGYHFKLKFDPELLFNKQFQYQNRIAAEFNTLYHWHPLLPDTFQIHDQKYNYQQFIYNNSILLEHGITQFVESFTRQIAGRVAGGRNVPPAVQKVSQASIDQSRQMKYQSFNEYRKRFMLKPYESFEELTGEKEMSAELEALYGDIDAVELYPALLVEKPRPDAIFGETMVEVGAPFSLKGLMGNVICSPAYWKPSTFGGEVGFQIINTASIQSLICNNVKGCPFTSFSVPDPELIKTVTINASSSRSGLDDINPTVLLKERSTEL
Description: Inhibitory activity against human recombinant cyclooxygenase 2

| SMILES | IC50 [1] [nM] | IC50 [2] [nM] |
| --- | --- | --- |
| Cc1onc(-c2ccccc2)c1-c1ccc(S(N)(=O)=O)c(F)c1 | 2 |  |
| NS(=O)(=O)c1ccc(-c2c(-c3ccccc3)noc2CCF)cc1 | 2 | 8 |
| NS(=O)(=O)c1ccc(-c2c(-c3ccccc3)noc2CF)cc1 | 2 |  |
| Cc1onc(-c2ccc(F)cc2)c1-c1ccc(S(N)(=O)=O)cc1 | 2 |  |

— ChEMBL document CHEMBL1143455 (Bioorg Med Chem Lett, 2005)
